Where two headings read alike, the source gives them in different places.
How the values were obtained:
[1] = Plasma stability, second experiment, human plasma; conditions: human, plasma
Procedure: Second experiment: Test compounds (5 mM in DMSO) were diluted at the final concentration of 250 μM with ACN-MeOH 1:1.
Human plasma (1.180 ml) was spiked with 20 μl of 250 μM solution of the compound (4.16 μM final concentration) and aliquots of 50 μl volume were taken at 0, 15, 30, 60, 120 min and 5 hrs, and immediately quenched with 200 μl of a solution of Verapamil 250 ng/ml (internal standard, I.S.) in ACN:MeOH 95:5. Samples were then centrifuged for 20 min at 3000 rpm at 10° C. and analyzed as reported below. […] The supernatant fractions were analyzed by LC/MS/MS. Zero-time incubations were used as 100% values.
Stability was calculated as percentage remaining of the area ratio compound/I.S. at each time point vs. area ratio compound/I.S. at time 0 min.

[2] = Solubility, method of European Pharmacopoeia 6.0; format: physicochemical
Procedure: The method reported in the European Pharmacopoeia 6.0 was used.
Batch CH730/16/8g was tested according to the method described in E. Ph: DMSO was added in 0.1 mL portions to 103.7 mg of product and the suspension was shaken with a Vortex instrument for 3 min after each addition. […] The batches CH730/16/8c, CH730/16/8g and CH730/23/8e were then tested stirring each suspension for a longer time; 100 mg of each batch dissolved completely in 0.2 mL of DMSO after stirring for 30 minutes.

[3] = Storage stability by HPLC (solid or chloroform solution; temperature, light); format: physicochemical; conditions: room temperature, natural light
Procedure: At this point, a stability study was conducted on batch CH730/16/8g.
The samples were analyzed at t=0 and after 20 days.

PBMCs = experiment: IL-6 and TNF-alpha secretion in PBMCs from three donors (ELISA); format: cell-based, human; conditions: read-out: EC50 values, IL-6 secretion
Procedure: EC50 values were determined for control and each drug candidate for IL-6 and TNF-alpha secretion. […] The cells were treated with TLR7 agonists for 24 hours in 7 doses. The conditioned media was removed for ELISA analyses for IL-6 and TNF-alpha, and cell survival determined by the XTT method according to the protocol from the supplier. […] Concentrations of IL-6 and TNF-alpha were determined by ELISA from R&D Systems using the Microsoft Excel Software. The results were analyzed in Graph Pad Prism in order to prepare dose-response curves, and for determination of EC50 values.

human PBMCs = experiment: IL-6 secretion in human PBMCs, two batches of Compound A and SC12; format: cell-based; conditions: 24 h, 4 doses
Procedure: PBMCs were purified from two donors and plated into 96 well plates at 2×10^5 cells/well in RPMI media including human 2% heat inactivated AB serum, glutamine, Pen-strep and R-mercapto-ethanol. The cells were treated with TLR7 agonists for 24 h in 4 doses. The conditioned media was removed for ELISA analyses for IL-6, and the EC50 value determined for each compound and each batch.
All compounds were tested in four concentrations (10-1-0.1-0.01 micromolar).
Concentrations of IL-6 were determined by ELISA from R&D Systems using the Microsoft Excel software. The results were analyzed in Graph Pad Prism in order to prepare dose-response curves, and for determination of EC50 values.

[4] = Plasma stability, first experiment, rat plasma; format: in vitro ADME
Procedure: (§1) A 10 μl of MeOH was added to improve solubility. […] The supernatant fractions were analyzed by LC/MS/MS. […] Percent loss of substrate in incubations was determined to estimate the in vitro half life of the test compound.

[5] = Plasma stability and metabolic profiling, first experiment, rabbit plasma; format: in vitro ADME
Procedure: as §1, with “compound. […] Assignment of the structures was done by comparison of the MS/MS analysis of the spectra with the parent spectrum.” for “compound.”

[6] = Plasma stability, first experiment, minipig plasma; format: in vitro ADME
Procedure: as §1

[7] = Plasma stability and metabolic profiling, first experiment, human plasma; format: in vitro ADME
Procedure: as §1, with “compound. […] Assignment of the structures was done by comparison of the MS/MS analysis of the spectra with the parent spectrum.” for “compound.”

[8] = test system: recombinant protein antigens from Plasmodium falciparum and Mycobacterium ulcerans; experiment: Pilot immunization study with adjuvanted protein antigens; format: in vivo, mice; conditions: three s.c. immunizations, 10 nMol adjuvant
Procedure: A pilot immunization study was conducted using Compound A and SC12 adjuvanted protein antigens. The immunization experiments were performed with two recombinant proteins expressed in E. coli. One antigen was derived from the malaria parasite Plasmodium falciparum and the other one from Mycobacterium ulcerans, which cause the ulcerative skin disease Buruli ulcer.

RAW.264 cells = experiment: Intracellular uptake in RAW.264 cells (LC-MS); format: cell-based; conditions: 10 microM
Procedure: 5×10^6 RAW.264 cells were adhered overnight in 10 cm tissue culture dishes. […] […] Supernatant (2 ml) and cells (pellets) were collected by trypsinization and frozen at […] for subsequent analysis by LC-MS.

Compound: COc1cc(N)c(Cl)cc1C(=O)OCCN1CCCCC1 [Compound M7319, 2-Piperidinoethyl 4-amino-5-chloro-2-methoxybenzoate, reference compound]
- % Remaining ([1]; 0 h, 4.16 μM): 100%
- % Remaining ([1]; 1 h, 4.16 μM): 23.3 ± 1.4%
- % Remaining ([1]; 5 h, 4.16 μM): 0.01 ± 0.01%

Compound: CCCCCCCC/C=C\CCCCCCCC(=O)OCC(COP(=O)(O)OCCNC(=O)c1ccc(Cn2c(=O)[nH]c3c(N)nc(OCCOC)nc32)cc1)OC(=O)CCCCCCC/C=C\CCCCCCCC (stereo not shown) [Compound A, 2-(4-((6-amino-2-(2-methoxyethoxy)-8-oxo-7H-purin-9(8H)-yl)methyl)benzamido)ethyl 2,3-bis(oleoyloxy)propyl phosphate]
- Solubility in DMSO [2]: soluble
- Solubility in acetonitrile [2]: not soluble
- Solubility in water [2]: not soluble
- Purity (HPLC) ([3]; retest 12 Jun. 2009 (test 20 May 2009)): Purity: 67.2%
- Purity (HPLC) ([3]; retest 16 Jun. 2009 (test 10 Jun. 2009)): Purity: 44.8%
- Purity (HPLC) ([3]; retest 17 Jun. 2009 (test 20 May 2009)): Purity: 58.9%
- Purity (HPLC) ([3]; retest 18 Jun. 2009 (test 11 Jun. 2009)): Purity: 71.5%
- Purity (HPLC) ([3]; test date 10 Jun. 2009): Purity: 57.5%
- Purity (HPLC) ([3]; test date 11 Jun. 2009): Purity: 81.4%
- Purity (HPLC) ([3]; test date 20 May 2009): Purity: 89.6%
- EC50 (PBMCs; D1, first experiments on three donors): 460 nM
- EC50 (PBMCs; D2, first experiments on three donors): 740 nM
- EC50 (PBMCs; D3, first experiments on three donors): 255 nM
- EC50 (human PBMCs; Donor 1, listed as Compound A new 20289): 721 nM
- EC50 (human PBMCs; Donor 1, listed as Compound A old Ch730/25/8): 734 nM
- EC50 (human PBMCs; Donor 2, listed as Compound A new 20289): 521 nM
- EC50 (human PBMCs; Donor 2, listed as Compound A old Ch730/25/8): 392 nM
- Plasma stability classification [4]: unstable
- % Remaining ([4]; 0 min): 100%
- % Remaining ([4]; 15 min): 73.8 ± 4.5%
- % Remaining ([4]; 30 min): 67.1 ± 8.8%
- % Remaining ([4]; 60 min): 25.2 ± 0.5%
- % Remaining ([4]; 120 min): 21.4 ± 1.9%
- % Remaining ([4]; 300 min): 15.3 ± 1.0%
- Plasma stability classification [5]: unstable
- % Remaining ([5]; 0 min): 100%
- Metabolites found ([5]; 30 and 120 min, 50 μM): Three metabolites
- % Remaining ([5]; 15 min): 38.7 ± 3.4%
- % Remaining ([5]; 30 min): 10.2 ± 1.0%
- % Remaining ([5]; 60 min): 7.4 ± 0.1%
- % Remaining ([5]; 120 min): 4.4 ± 0.7%
- % Remaining ([5]; 300 min): 1.9 ± 0.1%
- Plasma stability classification [6]: unstable
- % Remaining ([6]; 0 min): 100%
- % Remaining ([6]; 15 min): 102.4 ± 3.3%
- % Remaining ([6]; 30 min): 73.3 ± 5.0%
- % Remaining ([6]; 60 min): 78.6 ± 2.9%
- % Remaining ([6]; 120 min): 33.7 ± 2.3%
- % Remaining ([6]; 300 min): 10.8 ± 0.3%
- Metabolites found ([7]; 60 and 300 min, 50 μM): two of them
- Plasma stability classification ([7]; first experiment): unstable
- % Remaining ([7]; first experiment, 0 min): 100%
- % Remaining ([7]; first experiment, 15 min): 99.7 (*) %
- % Remaining ([7]; first experiment, 30 min): 40.4 ± 15.5%
- % Remaining ([7]; first experiment, 60 min): 36.1 ± 7.6%
- % Remaining ([7]; first experiment, 120 min): 17.4 ± 2.6%
- % Remaining ([7]; first experiment, 300 min): 7.8 ± 3.3%
- % Remaining ([1]; 0 h): 100%
- % Remaining ([1]; 0.25 h): 100.6 ± 14.5%
- % Remaining ([1]; 0.5 h): 90.3 ± 13.3%
- % Remaining ([1]; 2 h): 69.8 ± 16.8%
- Local side effects (swelling, ulcerations) [8]: No local side effects
- Intracellular Concentration (RAW.264 cells; incubation 1 hours): 5.50 % of total
- Intracellular Concentration (RAW.264 cells; incubation 6 hours): 4.27 % of total
- Intracellular Concentration (RAW.264 cells; incubation 16 hours): 1.53 % of total

Reference: patent US9173935B2, “Phospholipid drug analogs” (Telormedix SA, priority 2010, dated 2015)
